# US20130272963A1, “Cholesterol Efflux Assay Probe Formulations, Methods of Making and Using” (THE OHIO STATE UNIVERSITY, priority 2012, published 2013)
# Assay: Drug loading of CHEAP formulation
# Conditions: hydrophobic model drugs loaded into CHEAP
# Procedure: The intracellular delivery of hydrophobic drugs was conducted using a CHEAP formulation vehicle. Loading, as well as stability, of the drug-loaded CHEAP formulations was investigated on three different hydrophobic drugs. Rosiglitazone (RSG), Paclitaxel (PAX), and Tamoxifen (TAM) were used as model drugs for loading (FIG. 6A).
row,Structure (SMILES),binding affinity towards the CHEAP formulation
1,"CC(=O)O[C@H]1C(=O)[C@@]2(C)[C@H]([C@H](OC(=O)c3ccccc3)[C@]3(O)C[C@H](OC(=O)[C@H](O)[C@@H](NC(=O)c4ccccc4)c4ccccc4)C(C)=C1C3(C)C)[C@]1(OC(C)=O)CO[C@@H]1C[C@@H]2O [PAX, Paclitaxel]",high binding affinity
2,"CC/C(=C(\c1ccccc1)c1ccc(OCCN(C)C)cc1)c1ccccc1 [TAM, Tamoxifen]",high binding affinity
